Reference: US11337921B2, “Multi-use torasemide composition” (VETOQUINOL SA, priority 2018, dated 2022)

Experiment: Solubility of torasemide as a function of pH
Format: physicochemical
Settings: pH between about 2 and 7 (FIG. 1)
Description: Moreover, the solubility of torasemide depends on the pH of the solution. The stability of torasemide in solution is, moreover, a function of the additives and excipients used in the composition. Thus, torasemide is insoluble at a pH between about 2 and 7 (FIG. 1).

In the case of Cc1cccc(Nc2ccncc2S(=O)(=O)NC(=O)NC(C)C)c1 [torasemide, 1-isopropyl-3-[(4-m-toluidino-3-pyridyl)sulfonyl]urea], the Solubility of torasemide is reported as “insoluble”.
